In article PMC12051234, “NrdR in Streptococcus and Listeria spp.: DNA Helix Phase Dependence of the Bacterial Ribonucleotide Reductase Repressor” (Molecular Microbiology, 2025):

Biological target: T1, LmoNrdR (Listeria monocytogenes, UniProt Q8Y6W9)
T1 construct: gene nrdR; full-length, C-terminal His6 tag kept (pET30a(+), NdeI/XhoI), E. coli BL21(DE3); 19 kDa with tag
T1 sequence (Q8Y6W9 1-154): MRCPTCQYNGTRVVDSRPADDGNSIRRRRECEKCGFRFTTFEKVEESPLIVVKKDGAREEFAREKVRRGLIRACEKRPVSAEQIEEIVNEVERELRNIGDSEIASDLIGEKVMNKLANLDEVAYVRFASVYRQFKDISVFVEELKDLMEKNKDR
Test: size exclusion chromatography, oligomer shift; MST of DNA binding
Settings: 25 mM Bis-Tris propane pH 6.5, 5 mM MgCl2, 100 mM KCl, 4 C; ADP alone

For `Nc1ncnc2c1ncn2[C@@H]1O[C@H](COP(=O)(O)OP(=O)(O)O)[C@@H](O)[C@H]1O` [ADP], the “size exclusion chromatography, oligomer shift; MST of DNA binding” value was “LmoNrdR also eluted as a tetramer in the presence of only ADP”.
